Laboratory results reported in article PMC3778450, “Agonists and antagonists induce different palonosetron dissociation rates in 5-HT3A and 5-HT3AB receptors^” (Neuropharmacology, 2013).
Read-outs that look alike come from different tables or passages of the source.

Tests used:
5-HT3A receptors [1] = molecular target: T1, 5-HT3A receptors (Homo sapiens, UniProt P46098); experiment: Radioligand association and dissociation kinetics, HEK293 membranes; type: binding; set-up: dissociation k−1 (mean ± S.E.M): unit: h−1
T1 construct: expressed in transfected cells; host or cells: HEK293
T1 sequence (P46098 24-478): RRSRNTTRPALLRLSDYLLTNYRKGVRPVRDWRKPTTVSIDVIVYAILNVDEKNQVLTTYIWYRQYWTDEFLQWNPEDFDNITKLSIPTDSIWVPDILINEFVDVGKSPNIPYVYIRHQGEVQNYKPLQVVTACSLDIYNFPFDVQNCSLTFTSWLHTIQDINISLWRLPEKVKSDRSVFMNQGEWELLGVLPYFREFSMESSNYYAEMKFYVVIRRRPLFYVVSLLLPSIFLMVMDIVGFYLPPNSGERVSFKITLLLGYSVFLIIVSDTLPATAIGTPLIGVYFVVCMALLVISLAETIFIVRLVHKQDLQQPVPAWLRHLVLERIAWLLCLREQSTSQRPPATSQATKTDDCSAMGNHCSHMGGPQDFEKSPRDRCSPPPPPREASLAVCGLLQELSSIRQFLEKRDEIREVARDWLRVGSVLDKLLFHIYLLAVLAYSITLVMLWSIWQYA
Experimental: (§1) Human embryonic kidney (HEK) 293 cells were maintained on 90 mm tissue culture plates at 37 °C and 7% CO2 in a humidified atmosphere. They were cultured in DMEM:F12 (Dulbecco's Modified Eagle Medium/Nutrient Mix F12 (1:1)) with GlutaMAX™ I media containing 10% foetal calf serum and passaged when confluent. For radioligand binding studies cells in 90 mm dishes were transfected using PEI and incubated for 3–4 days before use. For functional studies cells were plated on 96 well plates, transfected using the Neon transfection system (Invitrogen) and incubated 1–2 days before assay. Mutagenesis reactions were performed using QuikChange (Agilent Technologies Inc., CA, USA) using human 5-HT3A or 5-HT3B receptor subunit cDNA (accession numbers: P46098 or O95264) in pcDNA3.1 (Invitrogen, Paisley, UK). Subunit numberings have been altered to the aligning residues in the mouse 5-HT3A receptor.
(§2) Briefly, transfected HEK293 cells were washed twice with phosphate buffered saline (PBS) at room temperature and scraped into 1 ml of ice-cold HEPES buffer (10 mM, pH 7.4) containing the following proteinase inhibitors (PI): 1 mM EDTA, 50 μg ml^−1 soybean trypsin inhibitor, 50 μg/ml bacitracin and 0.1 mM phenylmethylsulphonyl fluoride. […] Non-specific binding was determined using 10 μM quipazine. […] All samples were terminated by vacuum filtration using a Brandel cell harvester onto GF/B filters pre-soaked in 0.3% polyethyleneimine. Radioactivity was determined by scintillation counting using a Beckman LS6000SC (Fullerton, California, USA).
(§3) Data were analysed by iterative curve fitting using Prism software (GraphPad, San Diego, California, USA). Determination of Ki values was performed using the Cheng–Prusoff equation. Values are presented as mean ± SEM, n = 3–6.

5-HT3AB receptors [2] = molecular target: T2, 5-HT3AB receptors (Homo sapiens, UniProt P46098); experiment: as above; type: binding; set-up: dissociation k−1 (mean ± S.E.M): unit not given here
T2 construct: expressed in transfected cells; host or cells: HEK293
T2 sequence (P46098 24-478): T1 sequence (P46098 24-478)
T2 sequence (O95264 22-441 partner): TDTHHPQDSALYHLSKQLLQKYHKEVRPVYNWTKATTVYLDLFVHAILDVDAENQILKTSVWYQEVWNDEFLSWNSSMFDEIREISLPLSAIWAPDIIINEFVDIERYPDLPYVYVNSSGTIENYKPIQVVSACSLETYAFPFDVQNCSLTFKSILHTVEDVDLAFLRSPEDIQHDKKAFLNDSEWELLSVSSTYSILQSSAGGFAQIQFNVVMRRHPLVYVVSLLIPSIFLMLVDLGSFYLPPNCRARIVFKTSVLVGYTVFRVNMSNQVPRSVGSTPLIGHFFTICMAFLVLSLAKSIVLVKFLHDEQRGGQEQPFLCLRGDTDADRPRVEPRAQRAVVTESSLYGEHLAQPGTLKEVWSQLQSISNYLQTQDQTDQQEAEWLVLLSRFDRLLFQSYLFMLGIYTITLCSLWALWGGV
Experimental: as §1, §2, §3

5-HT3 receptors = system: 5-HT3 receptors; set-up: method as in Wong et al., 1995; conditions: ref Wong et al., 1995, cited from earlier work
[3] = system: 5-HT3 receptor-expressing HEK293 cells; conditions: cited from earlier work; for [3H]palonosetron remaining: ref Rojas et al., 2010
5-HT3A receptors [4] = molecular target: T1, 5-HT3A receptors; experiment: [3H]palonosetron saturation binding, HEK293 membranes; conditions: 24 h, 4 °C
Experimental: as §1, with “Mutagenesis reactions were performed using QuikChange (Agilent Technologies Inc., CA, USA) using human 5-HT3A or 5-HT3B receptor subunit cDNA (accession numbers: P46098 or O95264) in pcDNA3.1 (Invitrogen, Paisley, UK). Subunit numberings have been altered to the aligning residues in the mouse 5-HT3A receptor.” left out
(§4) Briefly, transfected HEK293 cells were washed twice with phosphate buffered saline (PBS) at room temperature and scraped into 1 ml of ice-cold HEPES buffer (10 mM, pH 7.4) containing the following proteinase inhibitors (PI): 1 mM EDTA, 50 μg ml^−1 soybean trypsin inhibitor, 50 μg/ml bacitracin and 0.1 mM phenylmethylsulphonyl fluoride. […] Non-specific binding was determined using 10 μM quipazine. […] Radioactivity was determined by scintillation counting using a Beckman LS6000SC (Fullerton, California, USA).
(§5) Data were analysed by iterative curve fitting using Prism software (GraphPad, San Diego, California, USA). […]

5-HT3AB receptors [5] = molecular target: T2, 5-HT3AB receptors; experiment: as above; conditions: 24 h, 4 °C
Experimental: as §1, with “Mutagenesis reactions were performed using QuikChange (Agilent Technologies Inc., CA, USA) using human 5-HT3A or 5-HT3B receptor subunit cDNA (accession numbers: P46098 or O95264) in pcDNA3.1 (Invitrogen, Paisley, UK). Subunit numberings have been altered to the aligning residues in the mouse 5-HT3A receptor.” left out
as §4, §5

[6] = molecular target: T3, 5-HT3 receptors expressed in oocytes (Homo sapiens, UniProt P46098); experiment: Recovery from palonosetron inhibition after washout in oocytes; type: cell-based; conditions: after a 10 min wash; data not shown
T3 sequence (P46098 24-478): T1 sequence (P46098 24-478)

[7] = system: 5-HT3 receptors, transfected HEK293 cells; set-up: method as in Rojas et al., 2008; conditions: ref Rojas et al., 2008; cited from earlier work
5-HT3A receptors [8] = molecular target: T1, 5-HT3A receptors; experiment: Flexstation membrane potential dye assay, inhibition of 5-HT-induced responses; type: cell-based; conditions: for relative Fmax: relative to 0 palonosetron (100%), typical example; for IC50: HEK293 cells
Experimental: as §1
(§6) Fluorescence was measured in a FLEXstation™ (Molecular Devices Ltd., Wokingham, UK) every 2 s for 200 s using the acquisition software SOFTmax® PRO v4.3.
as §3

5-HT3AB receptors [9] = molecular target: T2, 5-HT3AB receptors; experiment: as above; type: cell-based; conditions: for relative Fmax: relative to 0 palonosetron (100%), typical example; for IC50: palonosetron preincubated 45 min before 5-HT, HEK293 cells
Experimental: as §1, §6, §3

[10] = molecular target: 5-HT3 receptors, human hippocampus; set-up: method as in Wong et al., 1995; conditions: ref Wong et al., 1995; cited from earlier work
[11] = system: 5-HT3 receptors, NG108-15 cells; set-up: method as in Wong et al., 1995; conditions: ref Wong et al., 1995; cited from earlier work
5-HT3A receptors [12] = molecular target: T1, 5-HT3A receptors; experiment: [3H]granisetron competition binding, HEK293 membranes; conditions: displacement of [3H]granisetron
Experimental: as §1, §2, §3

5-HT3AB receptors [13] = molecular target: T2, 5-HT3AB receptors; experiment: as above; conditions: displacement of [3H]granisetron
Experimental: as §1, §2, §3

[14] = displacing ligand 5-HT (100 μM)
[15] = displacing ligand MDL72222 (1 μM)
[16] = displacing ligand quipazine (10 μM)
[17] = displacing ligand unlabelled palonosetron (100 nM)
[18] = agonist-induced dissociation (5-HT or quipazine)

With `O=C1c2cccc3c2[C@H](CCC3)CN1[C@@H]1CN2CCC1CC2` [[^3H]palonosetron] the association k (5-HT3A receptors [1]) was 0.16 ± 0.03, the “association t1/2” value (5-HT3A receptors [1]) was 4.1 min and the “[3H]palonosetron remaining” value (5-HT3A receptors [1]; after 2 h dissociation in the presence of MDL72222) was 67 ± 7%. For the same compound, the “dissociation k−1 (mean ± S.E.M)” value (5-HT3A receptors [1]; [14]) was 0.032 ± 0.005, the “dissociation t1/2” value (5-HT3A receptors [1]; [14]) was 21.9 h and the “dissociation k−1 (mean ± S.E.M)” value (5-HT3A receptors [1]; [15]) was 0.29 ± 0.03. For the same compound, the “dissociation k−1 (mean ± S.E.M)” value (5-HT3A receptors [1]; [16]) was 0.056 ± 0.003, the “dissociation t1/2” value (5-HT3A receptors [1]; [16]) was 12.5 h and the “dissociation k−1 (mean ± S.E.M)” value (5-HT3A receptors [1]; [17]) was 0.44 ± 0.05. The “dissociation t1/2” value (5-HT3A receptors [1]; [17]) was 1.5 h, the association k (5-HT3AB receptors [2]) was 0.35 ± 0.06 and the “association t1/2” value (5-HT3AB receptors [2]) was 2.0 min. For the same compound, the “dissociation k−1 (mean ± S.E.M)” value (5-HT3AB receptors [2]; [14]) was 0.057 ± 0.008, the “dissociation t1/2” value (5-HT3AB receptors [2]; [14]) was 12.1 h and the “dissociation k−1 (mean ± S.E.M)” value (5-HT3AB receptors [2]; [15]) was 0.41 ± 0.04. The “dissociation k−1 (mean ± S.E.M)” value (5-HT3AB receptors [2]; [16]) was 0.068 ± 0.003, the “dissociation t1/2” value (5-HT3AB receptors [2]; [16]) was 10.1 h and the “dissociation k−1 (mean ± S.E.M)” value (5-HT3AB receptors [2]; [17]) was 0.68 ± 0.08. For the same compound, the “time to complete association” value (5-HT3 receptors; previously reported) was “under 10 min”, the “[3H]palonosetron remaining associated” value ([3]; HEK293 cells after a 2.5 h wash, ref Rojas et al. (2008)) was 53 ± 11% and the “[3H]palonosetron remaining” value ([3]; cell-free membrane preparation after a 60 min wash) was 2%. For the same compound, the “[3H]palonosetron remaining” value ([3]; cells after a 60 min wash) was 65%, the Kd (5-HT3A receptors [4]) was 0.34 nM and the Kd (5-HT3AB receptors [5]) was 0.15 nM.

In the case of `O=C1c2cccc3c2[C@H](CCC3)CN1[C@@H]1CN2CCC1CC2` [Palonosetron, palonosetron], the “original response recovered after washout” value [6] is listed as under 10%, the Kd [7] is listed as 0.2 nM and the “dissociation t1/2” value (5-HT3A receptors [1]; [18]) is listed as over 10 h. The “dissociation t1/2” value (5-HT3A receptors [1]; [15]) was 2.3 h, the “dissociation t1/2” value (5-HT3A receptors [1]; [17]) was 1.5 h and the “relative Fmax” value (5-HT3A receptors [8]; 0.1 nM palonosetron) was 70%. The “relative Fmax” value (5-HT3A receptors [8]; 0.3 nM palonosetron) was 40%, the IC50 (5-HT3A receptors [8]; palonosetron co-applied with 5-HT, read-out: IC50) was 83 nM and the IC50 (5-HT3A receptors [8]; palonosetron preincubated 45 min before 5-HT, read-out: IC50) was 0.24 nM. The IC50 (5-HT3A receptors [8]; palonosetron preincubated 45 min before 5-HT, read-out: pIC50 (converted)) was 0.245 nM, the “relative Fmax” value (5-HT3AB receptors [9]; 0.1 nM palonosetron) was 62% and the “relative Fmax” value (5-HT3AB receptors [9]; 0.3 nM palonosetron) was 28%. For the same compound, the IC50 (5-HT3AB receptors [9]; read-out: IC50) was 0.18 nM, the IC50 (5-HT3AB receptors [9]; read-out: pIC50 (converted)) was 0.186 nM and the Kd [10] was 0.15 nM. For the same compound, the “dissociation t1/2” value (5-HT3AB receptors [2]; [18]) was over 10 h, the “dissociation t1/2” value (5-HT3AB receptors [2]; [15]) was 1.7 h and the “dissociation t1/2” value (5-HT3AB receptors [2]; [17]) was 1.0 h. For the same compound, the “dissociation t½” value (5-HT3 receptors; previous studies) was 8 to 10 min, the Kd [11] was 0.05 nM and the IC50 (5-HT3A receptors [12]; 4 °C) was 0.6 nM. It also gave a Ki (5-HT3A receptors [12]; Cheng–Prusoff) of 0.3 nM, an IC50 (5-HT3AB receptors [13]; 4 °C) of 0.71 nM and a Ki (5-HT3AB receptors [13]; Cheng–Prusoff) of 0.35 nM.
